Laboratory results: patent US8541029B2, “Article and method for focused delivery of therapeutic and/or diagnostic materials” (Armark Authentication Technologies, LLC, priority 2006, dated 2013)

Assay: Isolated temperature response of component materials to microwave RF
Assay type: physicochemical
Conditions: 130 Watts for 60 seconds; for P1 60 seconds ° F.: initial 68 ° F.
Procedure: The microcells were suspended as an aqueous sample while exposed to microwave RF. Both water and mineral oil were evaluated as a liquid medium to expose microcell samples. 500 milligram samples of each microcell component were dispersed in both water and mineral oil and exposed to 130 watts of microwave RF for 60 seconds to determine the preferred fluid medium to carry out the experiment.
Microwave RF exposure was performed in a Panasonic 1300 Watt Inverter Technology® Microwave Oven Model NN-SN667W at 130 Watts. The oven was retrofitted with all quartz platforms to reduce/eliminate dipole induction heating from standard glass structures. All containment and experimental material other than water or albumen in contact with the experimental samples was microwave transparent. Containment devices such as test tubes, slides, and cover slips were either quartz or microwave transparent plastics. Microwave oven use was limited to less than 90 minutes per test period to reduce/prevent incidental heating of the oven chamber. A 500 milliliter water “reservoir-load” was maintained within the oven chamber to absorb microwave energy and prevent magnetron damage. All tests were run in an environmentally-controlled room at about 65° F. (about 18.3° C.) and 50% RH.

SMILES: CC(=O)Nc1ccc(O)cc1 [Acetaminophen, acetaminophen]
- ΔT ° F. (500 mg in 10 g Mineral Oil): 0 ° F.
- P1 60 seconds ° F. (500 mg in 10 g Mineral Oil): 68 ° F.
- ΔT ° F. (500 mg in 10 g Water): 22 ° F.
- P1 60 seconds ° F. (500 mg in 10 g Water): 90 ° F.
